According to PubChem BioAssay AID248 (DTP/NCI, 2004):
Values joined by “and” are separate entries in the source; they are usually repeats but may differ in a detail not shown here. Equal entries are not always repeated. Inconclusive results and toxic doses are left out. Rule as the data show it: active = T/C of 150% or more; inactive = T/C below 125%.

Test system: L1210 leukemia ip in BDF1 mice, survival T/C
Experiment: NCI In Vivo Anticancer Drug Screen. Data for tumor model L1210 Leukemia (intraperitoneal) in B6D2F1 (BDF1) mice
Settings: endpoint: mean survival time, higher = longer survival
Outline: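 Mice bearing the transplanted tumor received compound or vehicle. Survival of the treated group was divided by that of the vehicle-treated control group to give the ratio.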

[1] = dose: 100.0 mg/kg/injection, schedule: Q04DX003 (ip), vehicle: Klucel (hydroxypropylcellulose) (HPC)
[2] = dose: 200.0 mg/kg/injection, schedule: Q04DX003 (ip), vehicle: Klucel (hydroxypropylcellulose) (HPC)
[3] = dose: 400.0 mg/kg/injection, schedule: Q04DX003 (ip), vehicle: Klucel (hydroxypropylcellulose) (HPC)
[4] = dose: 100.0 mg/kg/injection, schedule: Q04DX003 (ip), vehicle: saline with Tween-80
[5] = dose: 200.0 mg/kg/injection, schedule: Q04DX003 (ip), vehicle: saline with Tween-80
[6] = dose: 400.0 mg/kg/injection, schedule: Q04DX003 (ip), vehicle: saline with Tween-80
[7] = dose: 100.0 mg/kg/injection, schedule: Q04DX002 (ip), vehicle: saline with Tween-80
[8] = dose: 200.0 mg/kg/injection, schedule: Q04DX002 (ip), vehicle: saline with Tween-80
[9] = dose: 400.0 mg/kg/injection, schedule: Q04DX002 (ip), vehicle: saline with Tween-80
[10] = dose: 50.0 mg/kg/injection, schedule: Q01DX009 (ip), vehicle: saline
[11] = dose: 100.0 mg/kg/injection, schedule: Q01DX009 (ip), vehicle: saline
[12] = dose: 100.0 mg/kg/injection, schedule: Q04DX003 (ip), vehicle: saline
[13] = dose: 200.0 mg/kg/injection, schedule: Q04DX003 (ip), vehicle: saline
[14] = dose: 200.0 mg/kg/injection, schedule: Q01DX009 (ip), vehicle: saline
[15] = dose: 400.0 mg/kg/injection, schedule: Q04DX003 (ip), vehicle: saline
[16] = dose: 100.0 mg/kg/injection, schedule: Q01DX001 (ip), vehicle: carboxymethylcellulose (CMC)
[17] = dose: 200.0 mg/kg/injection, schedule: Q01DX001 (ip), vehicle: carboxymethylcellulose (CMC)
[18] = dose: 400.0 mg/kg/injection, schedule: Q01DX001 (ip), vehicle: carboxymethylcellulose (CMC)
[19] = dose: 100.0 mg/kg/injection, schedule: Q01DX009 (ip), vehicle: saline with Tween-80

Measured: T/C

C=CCc1c(C)cc(C)c(C)c1O
inactive: dose: 50.0 mg/kg/injection, schedule: Q01DX009 (sc), vehicle: olive oil, sesame oil, peanut oil 105 % of control | dose: 50.0 mg/kg/injection, schedule: Q04DX003 (sc), vehicle: olive oil, sesame oil, peanut oil 113 % of control | dose: 100.0 mg/kg/injection, schedule: Q01DX009 (sc), vehicle: olive oil, sesame oil, peanut oil 105 % of control | dose: 100.0 mg/kg/injection, schedule: Q04DX003 (sc), vehicle: olive oil, sesame oil, peanut oil 106 % of control | dose: 200.0 mg/kg/injection, schedule: Q01DX009 (sc), vehicle: olive oil, sesame oil, peanut oil 104 % of control | dose: 200.0 mg/kg/injection, schedule: Q04DX003 (sc), vehicle: olive oil, sesame oil, peanut oil 101 % of control

NC(CSCCc1ccc2ccccc2n1)C(=O)O (stereo not given)
inactive: [1] 100 % of control | [2] 95 % of control | [3] 99 % of control

CC1OC(c2ccccc2)OC2COC(c3ccccc3)OC12 (stereo not given)
inactive: [4] 102 % of control | [5] 96 % of control | [6] 96 % of control

Cc1ccc(/C=N/NC(=O)c2ccncc2)cc1
inactive: dose: 25.0 mg/kg/injection, schedule: Q01DX009 (ip), vehicle: Klucel (hydroxypropylcellulose) (HPC) 94 % of control | dose: 50.0 mg/kg/injection, schedule: Q01DX009 (ip), vehicle: Klucel (hydroxypropylcellulose) (HPC) 96 % of control | dose: 100.0 mg/kg/injection, schedule: Q01DX009 (ip), vehicle: Klucel (hydroxypropylcellulose) (HPC) 94 % of control and 96 % of control

O=CNc1ccccc1Sc1ccc(C(=O)O)cc1[N+](=O)[O-]
inactive: [1] 100 % of control | [2] 107 % of control | [3] 104 % of control

CCCC(P(c1ccccc1)c1ccccc1)P(=O)(c1ccccc1)c1ccccc1 (stereo not given)
inactive: [7] 94 % of control | [8] 94 % of control | [9] 94 % of control

O=[N+]([O-])c1ccc(/C=C\c2ccc(Cl)cc2S(=O)(=O)F)c(Cl)c1
inactive: dose: 100.0 mg/kg/injection, schedule: Q01DX009 (ip), vehicle: saline sonified 97 % of control | [4] 102 % of control | dose: 200.0 mg/kg/injection, schedule: Q01DX009 (ip), vehicle: saline sonified 97 % of control | [5] 96 % of control | dose: 400.0 mg/kg/injection, schedule: Q01DX009 (ip), vehicle: saline sonified 96 % of control | [6] 100 % of control

Cc1cc(=O)[nH]c2c1CCC2
inactive: [10] 92 % of control | [11] 95 % of control | [12] 106 % of control | [13] 108 % of control

C#CC1(OC(=O)Nc2cc3ccccc3o2)CCCCC1
inactive: [4] 90 % of control | [5] 95 % of control | [6] 92 % of control

COC(=O)CCC(=O)NCC(=O)OCc1ccccc1
inactive: dose: 100.0 mg/kg/injection, schedule: Q01DX001 (ip), vehicle: water 105 % of control | dose: 100.0 mg/kg/injection, schedule: Q04DX003 (ip), vehicle: water 100 % of control | dose: 200.0 mg/kg/injection, schedule: Q01DX001 (ip), vehicle: water 107 % of control | dose: 200.0 mg/kg/injection, schedule: Q04DX003 (ip), vehicle: water 96 % of control | dose: 400.0 mg/kg/injection, schedule: Q01DX001 (ip), vehicle: water 105 % of control | dose: 400.0 mg/kg/injection, schedule: Q04DX003 (ip), vehicle: water 90 % of control

O=C(Oc1ccccc1)Oc1c(Cl)cc([N+](=O)[O-])cc1[N+](=O)[O-]
inactive: [1] 100 % of control | [2] 100 % of control | [3] 93 % of control

O=C(O)COc1ccc(C2(c3ccc(OCC(=O)O)cc3)CC3CC2C2CCCC32)cc1 (stereo not given) (tested in a mixture with another compound)
inactive: [7] 93 % of control | [8] 93 % of control | [9] 106 % of control

Nc1nc2c(c(-c3ccccc3)n1)CN(c1ccc(Br)cc1)C2=O
inactive: [10] 95 % of control | [11] 92 % of control | [12] 90 % of control | [14] 92 % of control | [13] 95 % of control | [15] 90 % of control

CCc1n[nH]c(C(N)=O)c1O
inactive: dose: 100.0 mg/kg/injection, schedule: Q01DX001 (ip), vehicle: gum acacia 103 % of control | [11] 108 % of control | dose: 200.0 mg/kg/injection, schedule: Q01DX001 (ip), vehicle: gum acacia 101 % of control | [14] 104 % of control | dose: 400.0 mg/kg/injection, schedule: Q01DX001 (ip), vehicle: gum acacia 106 % of control | dose: 400.0 mg/kg/injection, schedule: Q01DX009 (ip), vehicle: saline 100 % of control

CN(C(=O)OCc1ccccc1)c1ccc(C(=O)NC(CCC(=O)O)C(=O)O)cc1 (stereo not given)
inactive: [16] 94 % of control | [17] 102 % of control | [18] 96 % of control

CC1(C)CC(O)CC(O)C1 (stereo not given)
inactive: dose: 50.0 mg/kg/injection, schedule: Q01DX001 (ip), vehicle: carboxymethylcellulose (CMC) 104 % of control | dose: 50.0 mg/kg/injection, schedule: Q01DX001 (ip), vehicle: saline 98 % of control | [16] 101 % of control | dose: 100.0 mg/kg/injection, schedule: Q01DX001 (ip), vehicle: saline 120 % of control | [17] 106 % of control | dose: 200.0 mg/kg/injection, schedule: Q01DX001 (ip), vehicle: saline 104 % of control | [18] 98 % of control | dose: 400.0 mg/kg/injection, schedule: Q01DX001 (ip), vehicle: saline 95 % of control

O=[N+]([O-])c1ccc2c(c1)CCCC2
inactive: dose: 100.0 mg/kg/injection, schedule: Q01DX009 (ip), vehicle: other 98 % of control | dose: 100.0 mg/kg/injection, schedule: Q04DX003 (ip), vehicle: other 105 % of control | dose: 200.0 mg/kg/injection, schedule: Q01DX009 (ip), vehicle: other 104 % of control | dose: 200.0 mg/kg/injection, schedule: Q04DX003 (ip), vehicle: other 96 % of control | dose: 400.0 mg/kg/injection, schedule: Q01DX009 (ip), vehicle: other 116 % of control | dose: 400.0 mg/kg/injection, schedule: Q04DX003 (ip), vehicle: other 92 % of control

O=C(c1ccc(O)cc1)c1c[nH]c2c(O)ccc(O)c12
inactive: dose: 25.0 mg/kg/injection, schedule: Q04DX002 (ip), vehicle: saline + alcohol 98 % of control | dose: 50.0 mg/kg/injection, schedule: Q04DX002 (ip), vehicle: saline + alcohol 91 % of control

NC(N)=Nc1ccc(C(=O)Nc2ccc([N+](=O)[O-])cc2)cc1
inactive: [10] 101 % of control | [11] 94 % of control | [12] 95 % of control | [14] 90 % of control | [13] 101 % of control | [15] 97 % of control

O=C(Cc1ccc(N(CCCl)CCCl)cc1)NC1CCCC1
inactive: [1] 117 % of control | [2] 120 % of control | dose: 266.0 mg/kg/injection, schedule: Q04DX003 (ip), vehicle: Klucel (hydroxypropylcellulose) (HPC) 107 % of control and 112 % of control | [3] 102 % of control and 119 % of control

Cc1oc2ccc(NS(=O)(=O)c3ccccc3)cc2c1C(=O)O
inactive: dose: 25.0 mg/kg/injection, schedule: Q01DX009 (ip), vehicle: saline with Tween-80 101 % of control | dose: 50.0 mg/kg/injection, schedule: Q01DX009 (ip), vehicle: saline with Tween-80 107 % of control | [19] 101 % of control

CS(=O)(=O)O/C=C(\C#N)C(=O)O
inactive: [16] 103 % of control | [17] 106 % of control

NCCCN1CCCN=C1C1=NCCCN1CCCN
inactive: [19] 96 % of control | dose: 100.0 mg/kg/injection, schedule: Q04DX002 (ip), vehicle: saline 100 % of control | [4] 109 % of control | dose: 200.0 mg/kg/injection, schedule: Q01DX009 (ip), vehicle: saline with Tween-80 100 % of control | dose: 200.0 mg/kg/injection, schedule: Q04DX002 (ip), vehicle: saline 100 % of control | [5] 98 % of control | dose: 400.0 mg/kg/injection, schedule: Q01DX009 (ip), vehicle: saline with Tween-80 100 % of control | [6] 95 % of control
